Data published in ChEMBL document CHEMBL5223166, “Thienopyrimidine Derivatives as GPR55 Receptor Antagonists: Insight into Structure-Activity Relationship” (ACS Med Chem Lett, 2023).
The source made the active and inactive calls. The rule behind the calls is not given here.

Legend:
Cannabinoid receptor 2 = Cannabinoid receptor 2 (Homo sapiens, UniProt P34972); test: Displacement of [3H]CP55940 from human CB2 receptor expressed in HEK293 cell membranes assessed as inhibition constant incubated for 90 mins by liquid scintillation spectrometry analysis; parameters: species or system Membrane
Chain of Cannabinoid receptor 2 (P34972 whole entry): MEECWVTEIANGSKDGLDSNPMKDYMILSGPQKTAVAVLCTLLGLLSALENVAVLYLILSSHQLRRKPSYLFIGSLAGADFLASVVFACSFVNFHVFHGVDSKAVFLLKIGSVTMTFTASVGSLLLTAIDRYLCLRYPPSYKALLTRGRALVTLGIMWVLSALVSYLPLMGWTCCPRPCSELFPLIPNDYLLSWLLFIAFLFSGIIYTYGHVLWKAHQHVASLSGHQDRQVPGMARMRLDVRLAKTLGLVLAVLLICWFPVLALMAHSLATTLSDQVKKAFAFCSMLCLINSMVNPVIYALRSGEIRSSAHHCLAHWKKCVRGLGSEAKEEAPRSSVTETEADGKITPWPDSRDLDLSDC

Cannabinoid receptor 1 = Cannabinoid receptor 1 (Homo sapiens, UniProt P21554); test: Displacement of [3H]CP55940 from human CB1 receptor expressed in HEK293 cell membranes assessed as inhibition constant incubated for 90 mins by liquid scintillation spectrometry analysis; parameters: species or system Membrane
Chain of Cannabinoid receptor 1 (P21554 whole entry, the tested form may be a part): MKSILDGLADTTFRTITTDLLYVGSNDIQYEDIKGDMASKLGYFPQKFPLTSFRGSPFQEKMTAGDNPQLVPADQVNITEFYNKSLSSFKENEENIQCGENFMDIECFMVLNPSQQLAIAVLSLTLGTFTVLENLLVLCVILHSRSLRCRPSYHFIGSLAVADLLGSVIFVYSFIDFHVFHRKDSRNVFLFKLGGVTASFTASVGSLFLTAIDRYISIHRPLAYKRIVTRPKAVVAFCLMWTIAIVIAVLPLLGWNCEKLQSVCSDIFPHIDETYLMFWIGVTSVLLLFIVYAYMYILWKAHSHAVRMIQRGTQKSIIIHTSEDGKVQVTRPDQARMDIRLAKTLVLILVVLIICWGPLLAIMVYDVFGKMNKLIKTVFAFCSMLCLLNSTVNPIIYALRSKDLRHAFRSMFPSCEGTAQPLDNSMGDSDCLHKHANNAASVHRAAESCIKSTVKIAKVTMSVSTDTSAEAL

[1] = molecular target: T1, G-protein coupled receptor 55 (Homo sapiens, UniProt Q9Y2T6); test: Antagonist activity at beta-galactosidase fused human GPR55 expressed in CHO cells assessed as inhibition of LPI-induced receptor activation by measuring beta-arrestin 2 recruitment at upto 10 uM incubated for 90 mins by PathHunter chemiluminescence based assay; assay type: cell-based
T1 sequence (Q9Y2T6 whole entry, the tested form may be a part): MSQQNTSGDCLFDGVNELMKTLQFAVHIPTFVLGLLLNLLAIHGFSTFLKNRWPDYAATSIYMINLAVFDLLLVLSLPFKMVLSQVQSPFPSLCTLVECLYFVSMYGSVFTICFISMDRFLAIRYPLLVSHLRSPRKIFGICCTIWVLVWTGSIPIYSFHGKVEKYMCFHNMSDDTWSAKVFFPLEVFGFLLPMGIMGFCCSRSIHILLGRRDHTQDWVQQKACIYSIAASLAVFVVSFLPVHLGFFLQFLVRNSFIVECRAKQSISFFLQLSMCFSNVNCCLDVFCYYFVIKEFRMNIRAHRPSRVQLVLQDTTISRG

[2] = molecular target: T1, G-protein coupled receptor 55; test: Antagonist activity at beta-galactosidase fused human GPR55 expressed in CHO cells assessed as inhibition of LPI-induced receptor activation by measuring beta-arrestin 2 recruitment incubated for 90 mins by PathHunter chemiluminescence based assay; assay type: cell-based
[3] = molecular target: T1, G-protein coupled receptor 55; test: Antagonist activity at human GPR55 expressed in HEK293 cells coexpressing serum response element assessed as inhibition of LPI-induced MAPK/ERK signalling pathway by measuring SRE response incubated for 5 hrs in serum-free medium by luciferin based bioluminescence analysis; assay type: cell-based
[4] = molecular target: T1, G-protein coupled receptor 55; test: Antagonist activity at human GPR55 expressed in human U2OS cells assessed as inhibition of LPI-induced receptor activation by measuring beta-arrestin 2 recruitment preincubated for 30 mins followed by LPI addition and measured after 75 mins by microplate reader analysis; assay type: cell-based
CHO = test: Cytotoxicity against CHO cells assessed as reduction in cell viability at upto 10 uM incubated for 24 hrs by XTT assay; assay type: toxicity, cell-based, Cricetulus griseus; conditions: chinese hamster
[5] = molecular target: T1, G-protein coupled receptor 55; test: Inverse agonist activity at human GPR55 expressed in HEK293 cells coexpressing serum response element assessed as reduction in MAPK/ERK signalling pathway by measuring SRE response incubated for 5 hrs in serum-free medium by luciferin based bioluminescence analysis; assay type: cell-based

SMILES	Ki (Cannabinoid receptor 2)	Ki (Cannabinoid receptor 1)	inhibition [1]	further results
Cc1cc(C)c2nc(-c3ccccn3)cc(C(=O)O)c2c1	> 4 µM	> 4 µM		
O=C(c1ccco1)N1CCN(c2nc(CCl)nc3sc4c(c23)CCCC4)CC1	> 4 µM	> 4 µM		
CC1(C)CCc2c(sc3nc(CN4CCOCC4)nc(N4CCN(C(=O)c5ccco5)CC4)c23)C1			inactive	
CC1(C)CCc2c(sc3nc(CO)nc(N4CCN(C(=O)c5ccco5)CC4)c23)C1	> 4 µM	> 4 µM		
COCc1nc(N2CCN(C(=O)c3ccco3)CC2)c2c3c(sc2n1)CC(C)(C)CC3	> 4 µM	> 4 µM	inactive	
O=C(c1ccco1)N1CCN(c2ncnc3sc(-c4ccccc4)cc23)CC1			inactive	
Cc1nc(O)c(C)c(N2CCN(C(=O)c3ccco3)CC2)n1			inactive	
O=C(c1ccco1)N1CCN(c2c[nH]c(=O)cn2)CC1			inactive	
Cc1nc(Nc2ccc(S(=O)(=O)Nc3onc(C)c3C)cc2)c2c3c(sc2n1)CCCC3				IC50 [2]: 29.3 µM
CC1(C)CCc2c(sc3nc(CCO)nc(N4CCN(C(=O)c5ccco5)CC4)c23)C1				IC50 [2]: 11.7 µM
O=C(c1ccco1)N1CCN(c2ncnc3sc4c(c23)CCCC4)CC1	> 4 µM	> 4 µM		IC50 [2]: 0.68 µM
Cc1nc(Nc2ccc(S(=O)(=O)Nc3onc(C)c3C)cc2)c2c3c(sc2n1)CC(C)(C)CC3				IC50 [2]: 3.35 µM
Cc1ccc2c(c1)sc1nc(C)nc(N3CCN(C(=O)c4ccco4)CC3)c12	> 4 µM	> 4 µM		
Cc1nc(N2CCN(C(=O)c3ccco3)CC2)c2c(n1)sc1ccccc12	> 4 µM	> 4 µM		
Cc1nc(N2CCN(C(=O)c3ccco3)CC2)c2c3c(sc2n1)CCCC3				IC50 [2]: 2.02 µM; IC50 [3]: 7.5 µM
Cc1nc(N2CCCN(C(=O)c3ccco3)CC2)c2c3c(sc2n1)CC(C)(C)CC3	> 4 µM	> 4 µM		
Cc1nc(O)c(C)c(Cl)n1	> 4 µM	> 4 µM		
O=C(c1ccco1)N1CCN(c2ncnn3cccc23)CC1			inactive	
Cc1c(Cl)nc(C)n(C)c1=O	> 4 µM	> 4 µM		
Cc1nc(N2CCN(C(=O)c3ccco3)CC2)c2c3c(sc2n1)CC(C)CC3 (stereo not drawn)				IC50 [4]: 0.43 µM
COCCc1nc(N2CCN(C(=O)c3ccco3)CC2)c2c3c(sc2n1)CC(C)(C)CC3	> 4 µM	> 4 µM	inactive	
Cc1nc(N2CCCN(C(=O)c3ccco3)CC2)c2c3c(sc2n1)CCCC3	> 4 µM	> 4 µM		
Cc1cc(C)c2nc(-c3ccccn3)cc(C(=O)N3CCN(C(=O)c4ccco4)CC3)c2c1			inactive	
O=C(c1ccco1)N1CCN(c2nc(C3CC3)nc3sc4c(c23)CCCC4)CC1				IC50 [4]: 0.86 µM
Cc1nc(N2CCN(C(=O)c3ccco3)CC2)c2c3c(sc2n1)CC(C)(C)CC3	> 4 µM	> 4 µM		IC50 [2]: 0.28 µM; Activity (CHO): Non-Toxic; IC50 [3]: 1.5 µM; EC50 [5]: 0.9 µM
Cc1c(N2CCN(C(=O)c3ccco3)CC2)nc(C)n(C)c1=O			inactive	
CC1(C)CCc2c(sc3nc(CCN4CCOCC4)nc(N4CCN(C(=O)c5ccco5)CC4)c23)C1	> 4 µM	> 4 µM	inactive	
Cn1ncc2ncnc(N3CCN(C(=O)c4ccco4)CC3)c21			inactive	
O=c1cnc(Cl)c[nH]1	> 4 µM	> 4 µM		
